# Patent US6562954B1, “Method for producing oligosaccharide, and novel oligosaccharide and pharmaceutical composition containing the same” (Seikagaku Corporation, priority 1999, dated 2003)
# What was measured:
# guinea pig neutrophils = assay: Effect on O2− generation by guinea pig neutrophils induced by FMLP stimulation; type: cell-based; conditions: for relative inhibition rate to the control of O2− generation: 1 mg/ml, preincubation 37° C. 1 hour; for suppression of O2− generation by neutrophils (in words): 0.01 to 1 mg/ml
# Method: A 0.2% aqueous solution of glycogen in physiological saline was autoclaved, and 20 ml of the solution was intraperitoneally administered to a Hartley female guinea pig. The animal was killed by exsanguination 16 hours later, 20 ml of physiological saline containing 10 U/ml of heparin was injected into the abdominal cavity, and the peritoneal exudate was collected. The exudate was centrifuged at 1000 rpm for 10 minutes on a desk-top centrifugal machine, and purified water was added to the precipitate to cause hemolysis for 30 seconds. The solution was made isotonic again with Hank's balanced salt solution at 2-fold concentration, and centrifuged at 1000 rpm for 10 minutes. A procedure of resuspension of the precipitates in the Hank's balanced salt solution and centrifugation was repeated twice to obtain neutrophils. The obtained guinea pig neutrophils were suspended in Hank's balanced salt solution, and the leukocyte number was counted by a blood cell counter (Sysmex K-2000). A suspension diluted with Hank's balanced salt solution to 2×10^6 cells/ml was used for the experiment as a cell suspension.
# 1 ml of the-cell suspension and 10 μl of a solution of test substance at a known concentration (in a control, keratan sulfate oligosaccharide was not added) were mixed, preincubated at 37° C. for 1 hour, and 50 μl of 1.6 mM cytochrome C solution and 100 μl of 0.1 mM FMLP solution were successively added thereto and mixed. The mixture was incubated at 37° C. for 10 minutes, and the reaction was stopped by cooling with ice. The reaction mixture was centrifuged at 3000 rpm for 5 minutes, and absorbance of the supernatant was measured at a wavelength of 550 nm. All of the aforementioned procedures except for the incubation were performed with ice cooling.
# normal mice = type: in vivo; conditions: for body weight thereafter: all mice, 2,000 mg/kg i.v. once, after the next day up to 14 days; for body weight on the next day of the administration: male mice, 2,000 mg/kg i.v. once; for general condition immediately after the administration: mice, 2,000 mg/kg i.v. once; for death: mice, male and female groups, 2,000 mg/kg i.v. once, observed 14 days
# Method: From the above results, the least fatal dose of K4 and G4L4 for single intravenous administration is considered to be 2,000 mg/kg or higher. Therefore, LD50 of K4 and G4L4 for single intravenous administration exceeds 2,000 mg/kg for both of male and female mice.
# Guinea pigs = assay: Test for antigenicity in guinea pigs (active systemic anaphylaxis); type: in vivo; conditions: sensitized s.c., induced i.v.
# Method: Guinea pigs were sensitized by 3 times of subcutaneous administration of K4 or G4L4 alone or an emulsion of K4 with an immunostimulant, Freund's complete adjuvant (FCA). K4 or G4L4 was intravenously administered to the animals 12 days after the final sensitization to induce active systemic anaphylaxis. As a positive control, a similar test was performed for ovalbumin (OVA).
# The results of the above test were shown in Table 1 together with the doses of the test substances. […] From the above results, K4 and G4L4 are not considered to induce active systemic anaphylaxis in guinea pigs.
Molecule,relative inhibition rate to the control of O2− generation (guinea pig neutrophils) [%],suppression of O2− generation by neutrophils (in words) (guinea pig neutrophils),body weight thereafter (normal mice),body weight on the next day of the administration (normal mice),general condition immediately after the administration (normal mice),death (normal mice),anaphylatic reaction after induction (Guinea pigs)
"CC(=O)NC1C(O)OC(COS(=O)(=O)[O-])C(OC2OC(COS(=O)(=O)[O-])C(O)C(OC3OC(COS(=O)(=O)[O-])C(OC4OC(COS(=O)(=O)[O-])C(O)C(O)C4O)C(O)C3NC(C)=O)C2O)C1O.[Na+].[Na+].[Na+].[Na+] (centres unmarked) [Compound L4L4, reference compound]",50.6,markedly suppressed,,,,,
"CC(=O)N[C@H]1[C@H](O[C@@H]2[C@@H](O)[C@H](O)O[C@H](COS(=O)(=O)[O-])[C@@H]2O)O[C@H](COS(=O)(=O)[O-])[C@@H](O)[C@@H]1O.[Na+].[Na+] [Compound K4, O-(2-Acetamido-2-deoxy-6-O-sulfo-β-D-glucopyranosyl)-(1→3)-O-6-O-sulfo-β-D-galactopyranose Disodium Salt]",44.7,markedly suppressed,favorable body weight increase,slight weight loss,paralytic gait was observed for every mouse,No death was observed,No anaphylatic reaction was observed
"CC(=O)N[C@@H]1[C@@H](O)[C@H](O[C@@H]2O[C@H](COS(=O)(=O)[O-])[C@H](O)[C@H](O[C@@H]3O[C@H](COS(=O)(=O)[O-])[C@@H](O)[C@H](O)[C@H]3NC(C)=O)[C@H]2O)[C@@H](COS(=O)(=O)[O-])O[C@H]1O.[Na+].[Na+].[Na+] [Compound G4L4, O-(2-Acetamido-2-deoxy-6-O-sulfo-β-D-glucopyranosyl)-(1→3)-O-(6-O-sulfo-β-D-galactopyranosyl)-(1→4)-O-2-acetamido-2-deoxy-6-O-sulfo-β-D-glucopyranose Trisodium Salt]",57.1,markedly suppressed,favorable body weight increase,slight weight loss,paralytic gait was observed for every mouse,No death was observed,No anaphylatic reaction was observed
"OVA: ovalbumin, positive control in the antigenicity test (protein, UniProt P01012 2-386, looked up) Ovalbumin: GSIGAASMEFCFDVFKELKVHHANENIFYCPIAIMSALAMVYLGAKDSTRTQINKVVRFDKLPGFGDSIEAQCGTSVNVHSSLRDILNQITKPNDVYSFSLASRLYAEERYPILPEYLQCVKELYRGGLEPINFQTAADQARELINSWVESQTNGIIRNVLQPSSVDSQTAMVLVNAIVFKGLWEKAFKDEDTQAMPFRVTEQESKPVQMMYQIGLFRVASMASEKMKILELPFASGTMSMLVLLPDEVSGLEQLESIINFEKLTEWTSSNVMEERKIKVYLPRMKMEEKYNLTSVLMAMGITDVFSSSANLSGISSAESLKISQAVHAAHAEINEAGREVVGSAEAGVDAASVSEEFRADHPFLFCIKHIATNAVLFFGRCVSP",,,,,,,showed anaphylatic reaction
